Results: patent US20240150286A1, “PEROXISOME PROLIFERATOR-ACTIVATED RECEPTOR GAMMA (PPARy) LIGANDS AND METHODS OF USE AS TREATMENTS FOR INSULIN RESISTANCE, OBESITY, FATTY LIVER DISEASE, AND TYPE 2 DIABETES” (The Board of Regents of the University of Oklahoma, priority 2022, published 2024)

System: 3T3-L1 cells
Experiment: 3T3-L1 adipocyte differentiation (Oil Red O staining, adipogenic gene mRNA)
Type: cell-based, mouse
Method: 3T3-L1 preadipocytes were differentiated. In brief, cells at around 60%-70% confluence were induced for differentiation with DMEM containing 10% FBS, 1 μg/ml insulin, 1 μM dexamethasone, and 0.5 mM IBMX for 48 h in the presence or absence of compounds and were then exposed in maintenance medium (1 μg/mL insulin in 10% FBS/DMEM) containing compounds. The medium was renewed every 2 days for total 8 days of differentiation when the cells became differentiated and lipid droplets were apparent. For primary preadipocyte differentiation, isolation of primary preadipocytes was performed. Briefly, fat depots were digested in PBS containing collagenase D (1.5 U/ml) at 37° C. for 40-45 min. The primary cells were filtered through 70 μm cell strainer and centrifuge at 700 g to collect stromal vascular fraction (SVF). The SVF cell pellets were plated on collagen coated plates. […]
Total RNA (2 μg) was isolated from tissues or cells using TRIzol reagents (Life Technologies) and reverse transcribed using oligo d(T) primers (New England Biosystems) and SuperScript IV reverse transcription kit (Applied Biosystems). qPCR was performed in a CFX96 Touch Real-Time PCR detection system using SYBR Green mix (Applied Biosystems). […] Relative mRNA expression was determined by the ΔΔCt method normalized to TBP mRNA. […]

Cc1c(C)n(Cc2ccc(-c3ccccc3C(=O)O)cc2)c2ccc(C(=O)NCc3cccc(O)c3)cc12 [WO95E, 4′-((5-((3-hydroxybenzyl)carbamoyl)-2,3-dimethyl-1H-indol-1-yl)methyl)-[1,1′-biphenyl]-2-carboxylic acid]
mRNA levels of adipogenic genes PPARγ, FABP4, Glut4, PEPCK, C/EBPa (3T3-L1, compounds at 10 μM, qRT-PCR): only minimally or moderately increased | Oil Red O staining / adipocyte differentiation (3T3-L1, differentiation media, compounds at 10 μM): only marginally increased Oil Red O staining level
